In general, inhibition refers to the drop in the measured response relative to a control, in per cent.

These results are taken from article PMC12655172, “Borylated 5-Membered Ring Iminosugars: Synthesis and Biological Evaluation for Glycosidase Inhibition and Anticancer Properties for Application in Boron Neutron Capture Therapy (BNCT)—Part 2” (Pharmaceuticals, 2025).

Entries after “also recorded” stand apart in the source; their conditions may differ.

What all share (assay type): biochemical
Test [1] has as its system α-D-glucosidase (rat intestine). Briefly: Glycosidase inhibition (Table 3 panel). Conditions: 1 mg/mL aqueous solution; run in water. The procedure, abridged: (§1)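 Enzymes tested at 27 °C in citric acid/disodium hydrogen phosphate buffer at each enzyme's optimum pH, with 1 mg/mL aqueous extract and […] para-nitrophenyl substrate. Reactions stopped with 0.4 M glycine (pH 10.4) within the exponential phase; absorbance read at 405 nm, triplicate means.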

Test [2] concerns N-acetyl-β-D-hexosaminidase (rat intestine). Briefly: Glycosidase inhibition (Table 3 panel). Conditions: 1 mg/mL aqueous solution; run in water. The procedure, abridged: as §1
Test [3] deals with β-D-glucosidase (human lysosome). Briefly: Glycosidase inhibition (Table 2 panel). The conditions noted are these: at 100 μM.
Test [4] addresses T1, β-D-galactosidase (bovine liver) (Bos taurus, UniProt F1MNT6).
T1 sequence (F1MNT6 1-469): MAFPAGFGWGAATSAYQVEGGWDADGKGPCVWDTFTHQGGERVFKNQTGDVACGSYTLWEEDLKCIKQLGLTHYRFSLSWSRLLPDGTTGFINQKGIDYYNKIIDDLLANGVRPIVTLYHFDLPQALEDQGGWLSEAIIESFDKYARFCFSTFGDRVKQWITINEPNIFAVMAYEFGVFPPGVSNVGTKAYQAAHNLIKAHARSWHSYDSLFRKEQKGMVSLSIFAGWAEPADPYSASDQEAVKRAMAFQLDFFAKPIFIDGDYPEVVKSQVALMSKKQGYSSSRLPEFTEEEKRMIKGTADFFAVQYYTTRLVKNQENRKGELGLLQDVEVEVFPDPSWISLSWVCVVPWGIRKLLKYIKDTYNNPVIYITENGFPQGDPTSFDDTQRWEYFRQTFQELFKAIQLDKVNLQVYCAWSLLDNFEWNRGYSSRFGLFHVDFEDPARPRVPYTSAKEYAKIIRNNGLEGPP
The test is described as follows: Glycosidase inhibition (Table 2 panel). The procedure, abridged: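 pNP-glycoside substrate […], optimum pH per enzyme, […]; quench Na2CO3 […]; A400 for liberated p-nitrophenol.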

Test [5] has as its system α-D-glucosidase (human lysosome). Briefly: Glycosidase inhibition (Table 2 panel). The conditions noted are these: at 100 μM.
Test [6] deals with glycosidases in the panel. Briefly: Glycosidase inhibition, whole Table 2 panel. An excerpt:
The enzymes α-D-glucosidase (yeast), β-D-glucosidases (almond, bovine liver), α-D-galactosidase (coffee beans), β-D-galactosidase (bovine liver), α-D-mannosidase (Jack bean), β-D-mannosidase (snail), α-L-rhamnosidase (P. decumbens), α-L-fucosidase (bovine kidney), trehalase (porcine kidney), β-D-glucuronidases (E. coli, bovine liver), amyloglucosidase (A. niger), para-nitrophenyl glycosides, and various disaccharides were purchased from Sigma-Aldrich Co (St. Louis, MO, USA).
Brush border membranes were prepared from the rat small intestine according to the method of Kessler et al., and were assayed at pH 6.8 for rat intestinal maltase using maltose. For rat intestinal maltase, porcine kidney trehalase, and A. niger amyloglucosidase activities, the reaction mixture contained maltose ([…]) and the appropriate amount of enzyme, and the incubations were performed for 10–30 min at 37 °C. The reaction was stopped by heating at 100 °C for 3 min. After centrifugation (600 g; 10 min), the resulting reaction mixture was added to the Glucose CII-test Wako (Wako Pure Chemical Ind., Osaka, Japan). The absorbance at 505 nm was measured to determine the amount of the released D-glucose. Other glycosidase activities were determined using an appropriate para-nitrophenyl glycoside as substrate at the optimum pH of each enzyme. The reaction mixture contained the substrate ([…]) and the appropriate amount of enzyme. The reaction was stopped by the addition of Na2CO3 ([…]). The released para-nitrophenol was measured spectrometrically at 400 nm. All reactions were run in […].

Test [7] concerns β-D-glucanase (T. Longibrachiatum). The test is described as follows: Glycosidase inhibition (Table 2 panel). Conditions: at 100 μM.
Test [8] has as its system N-acetyl-β-D-glucosaminidase (bovine kidney). Briefly: Glycosidase inhibition (Table 3 panel). Conditions: 1 mg/mL aqueous solution; run in water. The procedure, abridged: as §1
Test [9] concerns α-D-glucosidase (Bacillus). Briefly: Glycosidase inhibition (Table 3 panel). The conditions noted are these: 1 mg/mL aqueous solution; run in water. The procedure, abridged:
as §1

Test [10] deals with T2, α-D-mannosidase (Jack bean).
T2 construct: purchased Sigma-Aldrich; host or cells: Jack bean
The test is described as follows: Glycosidase inhibition (Table 3 panel). Conditions: 1 mg/mL aqueous solution; run in water. The procedure, abridged: as §1

In test [11] the test system is several glycosidases. Briefly: Glycosidase inhibition, whole Table 3 panel. The conditions noted are these: Table 3 assay conditions. On the procedure: All enzymes and para-nitrophenyl substrates were purchased from Sigma. Enzymes were assayed at 27 °C in citric acid (0.1 M)/disodium hydrogen phosphate (0.2 M) buffers at the optimum pH for the enzyme. The incubation mixture consisted of […] of 1 mg/mL aqueous solution of extract and […] of the appropriate […] para-nitrophenyl substrate made up in buffer at the optimum pH for the enzyme. The reactions were stopped by addition of […] 0.4 M glycine (pH 10.4) during the exponential phase of the reaction, which had been determined at the beginning using uninhibited assays in which water replaced the inhibitor. Final absorbances were read at 405 nm using a Versamax microplate reader (Molecular Devices, Wokingham, UK). Assays were carried out in triplicate, and the values given are means of the three replicates per assay. All reactions were run in water.

In the case of `CC1(C)O[C@H]2O[C@H]3[C@@H]([C@H]2O1)N(Cc1cccc(O)c1)C[C@H]3O` [meta 6], the “Percentage inhibition α-D-Glucosidase Rat Intestine” value in test [1] was found to be 4.8%. In test [2], the “Percentage inhibition N-Acetyl-β-D-Hexosaminidase Rat Intestine” value is recorded as −0.7%. In addition, the “inhibition % β-D-Glucosidase Human Lysosome” value in test [3] is “^cNI ^d(0%)”. In test [4] (at 100 μM), this molecule displayed an inhibition at 100 µM of 15.5%. For the same molecule, in test [5], the “inhibition % α-D-Glucosidase Human Lysosome” value is recorded as “^cNI ^d(3.3%)”. In addition, the “Inhibitory activity over the glycosidase panel, in words” value in [6] is “abrogates inhibitory activity”. Also, the “inhibition % β-D-Glucanase T. Longibrachiatum” value in test [7] is “^cNI ^d(3.1%)”.
For `CC1(C)O[C@H]2O[C@H]3[C@@H]([C@H]2O1)N(Cc1cccc(B(O)O)c1)C[C@H]3O` [meta 5, N-(3-Methylphenylboronic acid)-3,6-dideoxy-3,6-imino-1,2-O-isopropylidene-α-D-glucofuranose], the “Percentage inhibition α-D-Glucosidase Rat Intestine” value in test [1] stood at 11.6%. For the same molecule, the “Percentage inhibition N-Acetyl-β-D-Hexosaminidase Rat Intestine” value in test [2] came to 5%. For the same molecule, in test [3], the “inhibition % β-D-Glucosidase Human Lysosome” value is on record as “^cNI ^d(0%)”. Besides, in test [4] (at 100 μM), at 100 µM the inhibition was 0%. In addition, the “inhibition % α-D-Glucosidase Human Lysosome” value in test [5] is “^cNI ^d(0.3%)”. Moreover, the “Inhibitory activity over the glycosidase panel, in words” value in test [6] is recorded as “abrogates inhibitory activity”. In addition, the “inhibition % β-D-Glucanase T. Longibrachiatum” value in test [7] is given as “^cNI ^d(0%)”.
“Borocaptate sodium [BSH, reference compound]”: the “Percentage inhibition N-Acetyl-β-D-glucosaminidase Bovine Kidney” value in test [8] is reported as 37.1%. The “Percentage inhibition α-D-Glucosidase Bacillus” value in test [9] stood at 48.1%. Moreover, the “Percentage inhibition α-D-Mannosidase Jack Bean” value in test [10] was −18.7%. Moreover, the “inhibition % β-D-Galactosidase Bovine Liver” value in [4] (at 1000 μM) is reported as “^aNI ^b(0%)”. For the same molecule, the “Inhibition over the glycosidases of Table 3” value in [11] was 31.6–65.9%.
Turning to “N-(3-Hydroxyphenyl)-1,4-dideoxy-1,4-imino-L-gulitol [meta 7]”, the “Percentage inhibition α-D-Glucosidase Rat Intestine” value in test [1] is listed as −10.7%. Also, the “Percentage inhibition N-Acetyl-β-D-Hexosaminidase Rat Intestine” value in test [2] is on record as −2.5%. For the same molecule, the “inhibition % β-D-Glucosidase Human Lysosome” value in [3] is given as “^cNI ^d(9.9%)”. The “inhibition % β-D-Galactosidase Bovine Liver” value is reported as “^cNI ^d(17.5%)” in test [4] (at 100 μM) and “^aNI ^b(8.1%)” in test [4] (at 1000 μM). For the same molecule, the “inhibition % α-D-Glucosidase Human Lysosome” value in [5] was “^cNI ^d(0%)”. Besides, the “Inhibitory activity over the glycosidase panel, in words” value in [6] is “complete abrogation of inhibition; also recorded: abrogation of biological activity”. In addition, the “inhibition % β-D-Glucanase T. Longibrachiatum” value in [7] was “^cNI ^d(0%)”.
For the molecule `N[C@@H](Cc1ccc(B(O)O)cc1)C(=O)O` [BPA, 4-borono-L-phenylalanine, reference compound], the “Percentage inhibition N-Acetyl-β-D-glucosaminidase Bovine Kidney” value in [8] amounted to 6.7%. Besides, the “Percentage inhibition α-D-Glucosidase Bacillus” value in test [9] came out at 19.9%. In test [10], the “Percentage inhibition α-D-Mannosidase Jack Bean” value is recorded as 0.6%. Besides, in test [4] (at 100 μM), the inhibition at 100 µM stood at 10.9%. For the same molecule, the “Inhibition over the glycosidases of Table 3” value in [11] is given as < 30%.
In the case of `N[C@@H](Cc1ccc(B(O)O)cc1)C(=O)O` [^10B-BPA, reference compound], the “Percentage inhibition N-Acetyl-β-D-glucosaminidase Bovine Kidney” value in test [8] is reported as 6.3%. In test [9], the “Percentage inhibition α-D-Glucosidase Bacillus” value is on record as 19.5%. The “Percentage inhibition α-D-Mannosidase Jack Bean” value in test [10] is listed as −0.7%. Moreover, the “inhibition % β-D-Galactosidase Bovine Liver” value in [4] (at 100 μM) is on record as “^cNI ^d(0%)”. Further, the “Inhibition over the glycosidases of Table 3” value in test [11] is on record as < 30%.
Take `CC1(C)O[C@H]2O[C@H]3[C@@H]([C@H]2O1)N(Cc1ccccc1B(O)O)C[C@H]3O` [ortho 5]: the “Percentage inhibition α-D-Glucosidase Rat Intestine” value in test [1] was determined as 4.2%. Moreover, the “Percentage inhibition N-Acetyl-β-D-Hexosaminidase Rat Intestine” value in test [2] amounted to 5.2%. Moreover, in [3], the “inhibition % β-D-Glucosidase Human Lysosome” value is “^cNI ^d(3.5%)”. The inhibition at 100 µM in test [4] (at 100 μM) amounted to 6.1%. For the same molecule, the “inhibition % α-D-Glucosidase Human Lysosome” value in test [5] is “^cNI ^d(0%)”. The “Inhibitory activity over the glycosidase panel, in words” value in [6] is recorded as “abrogates inhibitory activity”. The “inhibition % β-D-Glucanase T. Longibrachiatum” value in test [7] is listed as “^cNI ^d(5.2%)”.
